# Read-outs that look alike come from different tables or passages of the source.
# Legend:
# THLE-2 = experiment: CellTiter-Glo (CTG) cell proliferation assay, 72 hours, counter-screen; format: cell-based, human
# Experimental: Preparation of Solutions of Test Article: Compounds were plated into black 384-well plates (Corning Inc.) to a final DMSO volume of 0.1% assuming a maximal volume of 50 μL. A 10-point dose response starting at 10 μM with a 1:3 dilution was printed in duplicate by acoustic dispense using the EDC ATS-100 platform.
# Cell Proliferation Assays: The effect of Compound 1 on the proliferation/viability of the hematological cell lines (Table 1 Table, Table 2 and Table 3), THLE-2, or PBMCs was assessed after 72 hours incubation using CTG (Promega), according to manufacturer's instructions. Hematological cell lines were dispensed into compound plates by a Multidrop™ Combi Reagent Dispenser (Thermo Scientific, Waltham, Mass.) at a concentration of 0.1 to 0.3×10^6 cells per mL in a 50 μL total volume. THLE-2 cells were seeded out at 1000 cells per well in 50 μL volume and incubated for 72 hours. At 72 hours, 25 μL per well of CTG was dispensed by a Multidrop™ Combi Reagent Dispenser and adenosine triphosphate (ATP) release by viable cells was measured as relative luminescence units after 30 minutes using the Envision platform.
# In order to calculate the therapeutic window for Compound 1, the compound was counter-screened against the immortalized (but non-tumorigenic) human hepatocyte-derived cell line THLE-2 (Pfeifer, et al, Proc Natl Acad Sci USA 1993 90(11):5123-5127) and against primary human PBMCs. […] The Compound 1 therapeutic window for the 10 sensitive AML cell lines as compared to THLE-2 cells ranged from 4.1 (KG-1a) to 57 (HNT-34) (method 1) or from 5.7 (KG-1a) to 79.5 (HNT-34) (method 2); the Compound 1 therapeutic window as compared to PBMCs ranged from 2.6 (KG-1a) to 36 (HNT-34)), or from 1.5 (KG-1a) to 21 (HNT-34) (Table 6).
# Cultures of 11 different AML cell lines were incubated 72 hours with Compound 1 at concentrations of 0.5 nM to 10 μM. Proliferation was assessed using the CellTitre-Glo® assay. Results for cultures incubated with Compound 1 were normalized to results for control cultures for each cell line. […]
# MDS progenitor cells = experiment: MDS colony forming assay in Methocult; format: cell-based, human; details: 24 hours exposure; compared with liquid culture
# Experimental: Methods. The effect of Compound 1 on high risk MDS samples was measured in an in vitro liquid culture as well as by colony assays in order to better define its effect on stem/progenitor cells. Bone marrow mononuclear cells (BMMCs) from high risk MDS patients were cultured in vitro in CellGro medium (GellGenix) supplemented with hLDL (40 μg/mL), SCF (50 ng/mL), FLT3 […] (50 ng/mL), IL-3 (10 ng/mL), IL-6 (25 ng/mL) and TPO (100 ng/mL), all from Peprotech. During culture, cells were exposed to different concentrations of Compound 1 (37, 111, 333 and 1000 nM) or DMSO control. After 24 hours, cells were washed twice to remove compound and maintained in culture up to one week, performing viable cell counting on days 1, 3 and 7. Just after compound washout, […] per condition were collected for colony forming assays and another […] were stained for intracellular flow cytometry.
# For colony forming assays cells were seeded in Methocult media (Stem Cell Technologies), incubated at 37° C. during 14 days and scored by automatic counting using StemVision (Stem Cell Technologies).
# HL-60 human AML cells = format: in vivo, SCID mice; details: for reduction in percentage of human CD33+/CD45+ tumor cells in the BM: vs vehicle control
# Experimental: In this study, Compound 1 antitumor activity in the HL-60 IV AML xenograft model was studies. In this model, HL-60 human AML cells engraft in host BM and internal organs (eg, spleen, liver) and animals develop progressive peripheral leukocytosis. Female severe combined immunodeficiency (SCID) mice were inoculated with HL-60 cells by tail vein injection. To understand the effect of Compound 1 on the xenografted HL-60 cells, animals were dosed intraperitoneal (IP) with vehicle or Compound 1 (0.5, 1, 2.5, and 5 mg/kg) once daily (QD)×5 between Weeks 3 and 4 post-engraftment (AP6516, survival study) or animals were dosed IP twice daily (BID) with vehicle or Compound 1 for 5 or 10 consecutive days (5 mg/kg BID×5 or 2.5 mg/kg, BID×10) between Weeks 6 and 8 post-engraftment (Study AP6982, % human CD33+[hCD33+] cells in BM).
# In this study, different Compound 1 dosing schedules (5 mg/kg, BID×5 consecutive days versus 2.5 mg/kg, BID×10 consecutive days) were studied while maintaining the total amount of drug administered constant. Vehicle control animals were treated with 5% N-methyl-2-pyrrolidone (NMP)/45% PEG 400/50% saline. Treatment was initiated 6 weeks post inoculation. Vehicle and Compound 1 treatment groups were terminated either on Day 7 (following 5 consecutive days of 5 mg/kg twice a day [BID] Compound 1) or on Day 11 (following 10 consecutive days of 2.5 mg/kg BID Compound 1) post treatment initiation. The primary endpoint for the study was percentage of hCD33+/CD45+ cells in the BM by FACS analysis. Additional endpoints included cell viability, body weight, and BM histology.
# HL-60 cells were identified from femur bone marrow samples by FACS analysis as CD33+/CD45+ with human specific antibodies. The percentage of human CD33+/CD45+ cells in the BM of vehicle-treated animals from the BID×5 and BID×10 groups were 47.5±6% and 55.2±6%, respectively.
# [1] = THLE-2 normal cells, 0.1 nM to 100 μM
structure (smiles),measurement,setting,value
"O=C1CCC(N2Cc3cc(CNC(=O)C(F)(F)c4ccc(Cl)cc4)ccc3C2=O)C(=O)N1 (centres unmarked) [Compound 1, 2-(4-chlorophenyl)-N-((2-(2,6-dioxopiperidin-3-yl)-1-oxoisoindolin-5-yl)methyl)-2,2-difluoroacetamide]",IC50,"THLE-2; Homo sapiens, THLE-2, 72 h, THLE-2 non-tumorigenic human hepatocyte-derived cell line, 72 hours, read-out: antiproliferative IC50",10 µM
same,AUC Method 1,THLE-2; [1],393.0 arbitrary units
same,AUC Method 2,THLE-2; [1],549.1 arbitrary units
same,effect on MDS progenitor cells in colony forming assays,MDS progenitor cells,more acute
same,human CD33+/CD45+ cells in the BM,HL-60 human AML cells; 2.5 mg/kg IP BID×10,15.7%
same,reduction in percentage of human CD33+/CD45+ tumor cells in the BM,"HL-60 human AML cells; 2.5 mg/kg IP BID×10, p<0.0001",71.5%
same,human CD33+/CD45+ cells in the BM,HL-60 human AML cells; 5 mg/kg IP BID×5,21.9%
same,reduction in percentage of human CD33+/CD45+ tumor cells in the BM,"HL-60 human AML cells; 5 mg/kg IP BID×5, p=0.0013",54.0%

# Source: patent US11590117B2, “Treatment of a hematologic malignancy with 2-(4-chlorophenyl)-n-((2-(2,6-dioxopiperidin-3-yl)-1-oxoisoindolin-5-yl)methyl)-2,2-difluoroacetamide” (priority 2016, dated 2023)
